Reference: patent US9776987B2, “Amide derivatives for GPR119 agonist” (CHONG KUN DANG PHARMACEUTICAL CORP., priority 2013, dated 2017)

Target: T1, human GPR119 receptor (Homo sapiens, UniProt Q8TDV5)
T1 construct: host or cells: GeneBLAzer T-Rex GPR 119 CHO-K1 DA cells (CHO-K1)
T1 sequence (Q8TDV5 1-335): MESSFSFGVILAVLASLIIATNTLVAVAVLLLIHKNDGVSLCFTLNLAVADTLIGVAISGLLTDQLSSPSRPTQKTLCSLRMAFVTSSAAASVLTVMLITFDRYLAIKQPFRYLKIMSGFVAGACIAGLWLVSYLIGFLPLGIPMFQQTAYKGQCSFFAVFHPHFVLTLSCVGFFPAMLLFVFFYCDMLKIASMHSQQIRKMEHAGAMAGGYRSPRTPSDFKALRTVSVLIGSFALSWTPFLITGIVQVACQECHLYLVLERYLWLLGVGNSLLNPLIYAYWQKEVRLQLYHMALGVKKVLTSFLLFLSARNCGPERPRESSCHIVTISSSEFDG
Assay: Activity test for human GPR119 receptor (GeneBLAzer T-Rex GPR 119 CHO-K1 DA cells)
Format: cell-based
Conditions: for EC50: human GPR119 receptor expressing CHO-K1 cells, 5 hours treatment, read-out: hGPR119 EC50; for activity for human GPR119 receptor (in words): judgement on the EC50 values of Table 11
Experimental: 1. Human GPR119 Receptor Cell
As a human GPR119 receptor expression cell for this test, the cell line “GeneBLAzer™ T-Rex GPR 119 CHO-K1 DA cells” that is commercially available from Invitrogen, was used. The cell was incubated in the DMEM media containing 1% dialyzed fetal bovine serum etc. The cell incubator was kept at constant temperature and constant humidity of 37° C., 5% CO2.
2. Activity Test for Human GPR119 Receptor
The human GPR119 receptor expressing cell was used to this test. Each of test compounds was added to be final concentrations of 0.1, 1, 10 μM in 96 well and tested in duplicate. A fixed amount of cell was added to each well of 96 well separately, and then treated with the test compound for 5 hours. After treatment of color development agent for 2 hours, the fluorescence value was determined with plate reader. To the luminous wavelength of control well, which was not treated with the sample, but in which only a vehicle […] was contained, the ratio of the luminous wavelength of test well, which was treated with the sample, was calculated, and then converted to obtain EC50 value.
3. Statistical Processing
All the results were expressed as mean±SD, and each test groups and the control group were compared using student's t-test to adjudge the effects of each test groups.

EC50 [nM]	activity for human GPR119 receptor (in words)	Compound
0.8	excellent activity	NC(=O)[C@@H]1C[C@@H](O)CN1C(=O)c1ccc(-c2cnc(OCC3CCN(CC4(C(F)(F)F)CCC4)CC3)cn2)cc1F [Compound 1200, (2S,4R)-1-(2-fluoro-4-(5-((1-((1-(trifluoromethyl)cyclobutyl)methyl)piperidin-4-yl)methoxy)pyrazin-2-yl)benzoyl)-4-hydroxypyrrolidin-2-carboxamide]
9		CC(C)(F)CN1CCC(COc2cnc(-c3ccc(C(=O)N4CCC[C@@]4(C)C(N)=O)c(F)c3)nc2)CC1 [Compound 1206, (S)-1-(2-fluoro-4-(5-((1-(2-fluoro-2-methylpropyl)piperidin-4-yl)methoxy)pyrimidin-2-yl)benzoyl)-2-methylpyrrolidin-2-carboxamide]
0.09		NC(=O)[C@@H]1C[C@H](F)CN1C(=O)c1ccc(-c2cnc(OCC3CCN(CC4(C(F)(F)F)CCC4)CC3)cn2)cc1 [Compound 1209, (2S,4S)-4-fluoro-1-(4-(5-((1-((1-(trifluoromethyl)cyclobutyl)methyl)piperidin-4-yl)methoxy)pyrazin-2-yl)benzoyl)pyrrolidin-2-carboxamide]
0.2		CCC(F)(CC)CN1CCC(COc2ccc(-c3ccc(C(=O)N4C[C@@H](F)C[C@H]4C(N)=O)cc3F)cc2)CC1 [Compound 1210, (2S,4S)-1-(4′-((1-(2-ethyl-2-fluorobutyl)piperidin-4-yl)methoxy)-2-fluorobiphenylcarbonyl)-4-fluoropyrrolidin-2-carboxamide]
0.08		CCC(F)(CC)CN1CCC(COc2ccc(-c3ccc(C(=O)N4C[C@@H](F)C[C@H]4C(N)=O)c(F)c3)cc2)CC1 [Compound 1211, (2S,4S)-1-(4′-((1-(2-ethyl-2-fluorobutyl)piperidin-4-yl)methoxy)-3-fluorobiphenylcarbonyl)-4-fluoropyrrolidin-2-carboxamide]
0.1		NC(=O)[C@@H]1[C@@H](O)CCN1C(=O)c1ccc(-c2ccc(OCC3CCN(CC4(C(F)(F)F)CCC4)CC3)cc2)c(F)c1 [Compound 1220, (2S,3S)-1-(2-fluoro-4′-((1-((1-(trifluoromethyl)cyclobutyl)methyl)piperidin-4-yl)methoxy)biphenylcarbonyl)-3-hydroxypyrrolidin-2-carboxamide]
0.9		CCC(F)(F)CN1CCC(COc2ccc(-c3ccc(C(=O)N4CCC[C@H]4C(N)=O)c(F)c3)cn2)CC1 [Compound 1238, (S)-1-(4-(6-((1-(2,2-difluorobutyl)piperidin-4-yl)methoxy)pyridin-3-yl)-2-fluorobenzoyl)pyrrolidin-2-carboxamide]
0.1		NC(=O)[C@@H]1CCCN1C(=O)c1ccc(-c2ccc(OCC3CCN(CC(F)(F)C(F)(F)F)CC3)cc2)cc1F [Compound 1239, (S)-1-(3-fluoro-4′-((1-(2,2,3,3,3-pentafluoropropyl)piperidin-4-yl)methoxy)biphenylcarbonyl)pyrrolidin-2-carboxamide]
0.3		CCC(F)(CC)CN1CCC(COc2ccc(-c3ccc(C(=O)N4CC[C@H](O)[C@H]4C(N)=O)c(F)c3)cc2F)CC1 [Compound 1244, (2S,3S)-1-(4′-((1-(2-ethyl-2-fluorobutyl)piperidin-4-yl)methoxy)-3,3′-difluorobiphenylcarbonyl)-3-hydroxypyrrolidin-2-carboxamide]
1		CCC(F)(CC)CN1CCC(COc2ccc(-c3ccc(C(=O)N4CC[C@H](O)[C@H]4C(N)=O)cc3)c(F)c2)CC1 [Compound 1245, (2S,3S)-1-(4′-((1-(2-ethyl-2-fluorobutyl)piperidin-4-yl)methoxy)-2′-fluorobiphenylcarbonyl)-3-hydroxypyrrolidin-2-carboxamide]
0.1	excellent activity	NC(=O)[C@@H]1[C@@H](O)CCN1C(=O)c1ccc(-c2cnc(OCC3CCN(CC4(C(F)(F)F)CCC4)CC3)cn2)cc1F [Compound 1249, (2S,3S)-1-(2-fluoro-4-(5-((1-((1-(trifluoromethyl)cyclobutyl)methyl)piperidin-4-yl)methoxy)pyrazin-2-yl)benzoyl)-3-hydroxypyrrolidin-2-carboxamide]
0.2	excellent activity	NC(=O)[C@@H]1[C@@H](O)CCN1C(=O)c1ccc(-c2cnc(OCC3CCN(CC4(C(F)(F)F)CCC4)CC3)cn2)c(F)c1 [Compound 1253, (2S,3S)-1-(3-fluoro-4-(5-((1-((1-(trifluoromethyl)cyclobutyl)methyl)piperidin-4-yl)methoxy)pyrazin-2-yl)benzoyl)-3-hydroxypyrrolidin-2-carboxamide]
2	excellent activity	NC(=O)[C@@H]1C[C@@H](O)CN1C(=O)c1ccc(-c2ccc(OCC3CCN(CC4(C(F)(F)F)CCC4)CC3)cc2)c(F)c1 [Compound 1255]
0.4		NC(=O)[C@@H]1C[C@@H](O)CN1C(=O)c1ccc(-c2ccc(OCC3CCN(CC(F)(F)C(F)(F)F)CC3)cc2)cc1F [Compound 1256, (2S,4R)-1-(3-fluoro-4′-((1-(2,2,3,3,3-pentafluoropropyl)piperidin-4-yl)methoxy)biphenylcarbonyl)-4-hydroxypyrrolidin-2-carboxamide]
10		CCC(F)(CC)CN1CCC(COc2cnc(-c3ccc(C(=O)N4C[C@H](O)C[C@H]4C(N)=O)c(F)c3)nc2)CC1 [Compound 1257, (2S,4R)-1-(4-(5-((1-(2-ethyl-2-fluorobutyl)piperidin-4-yl)methoxy)pyrimidin-2-yl)-2-fluorobenzoyl)-4-hydroxypyrrolidin-2-carboxamide]
1		C[C@@]1(C(N)=O)C[C@@H](O)CN1C(=O)c1ccc(-c2ccc(OCC3CCN(CC4(C(F)(F)F)CCC4)CC3)cc2)c(F)c1 [Compound 1258, (2S,4R)-1-(2-fluoro-4′-((1-((1-(trifluoromethyl)cyclobutyl)methyl)piperidin-4-yl)methoxy)biphenylcarbonyl)-4-hydroxy-2-methylpyrrolidin-2-carboxamide]
5		CC(C)(F)CN1CCC(COc2ccc(-c3ccc(C(=O)N4CCC[C@@]4(C)C(N)=O)c(F)c3)cc2C#N)CC1 [Compound 1259, (S)-1-(3′-cyano-3-fluoro-4′-((1-(2-fluoro-2-methylpropyl)piperidin-4-yl)methoxy)biphenylcarbonyl)-2-methylpyrrolidin-2-carboxamide]
0.8	excellent activity	NC(=O)C1CC(O)CCN1C(=O)c1ccc(-c2cnc(OCC3CCN(CC4(C(F)(F)F)CCC4)CC3)cn2)cc1F (stereo not shown) [Compound 1262, 1-(2-fluoro-4-(5-((1-((1-(trifluoromethyl)cyclobutyl)methyl)piperidin-4-yl)methoxy)pyrazin-2-yl)benzoyl)-4-hydroxypiperidin-2-carboxamide]
0.04	excellent activity	C[C@@]1(C(N)=O)CCCN1C(=O)c1ccc(-c2cnc(OCC3CCN(CC4(C(F)(F)F)CCC4)CC3)cn2)cc1F [Compound 1263, (S)-1-(2-fluoro-4-(5-((1-((1-(trifluoromethyl)cyclobutyl)methyl)piperidin-4-yl)methoxy)pyrazin-2-yl)benzoyl)-2-methylpyrrolidin-2-carboxamide]
